# Measured values published in patent US6518300B2, “Treatment of lipid metabolic disorders using 5-(1,2-dithiolan-3-yl) valeric acid (α-lipoic acid) or its physiologically compatible salts” (BiRD Berolina innovative Research and Development GmbH, priority 1998, dated 2003).
# Assays:
# [1] = doses of approximately 600 mg/day; treatment of polyneuropathy; cited from earlier work
# [2] = open observational study of blood lipid values under α-lipoic acid therapy; total population and individual-parameter analysis; assay type: in vivo, patients
# Method: A somewhat smaller group was treated with α-lipoic acid, but not with captopril (n=280). The treatment time extended over approximately 3 months. α-Lipoic acid was predominantly administered orally or parenterally in a dose of 600 mg per day. Captopril was ingested orally in daily doses of 12.5 to 50 mg. At the beginning of therapy and at the end of observation after three months, the blood lipid values were optionally recorded. […] Because of the different basic treatment, the patients with combined therapy of α-lipoic acid and captopril and those with a single therapy with α-lipoic acid were placed in subgroups for this purpose: the 160 remaining patients (those with single therapy with captopril, n=154; those without treatment data n=6) were not included in the further analysis, since in this remaining group, only a small, incomparable number of patients had initial values corresponding to the range named under point 2 (triglycerides n=0, total cholesterol n=63, HDL cholesterol n=0, LDL cholesterol n=32). In a first analysis, the parameters were represented independently of one another, i.e., all patients, who had the initial values given below for the parameter, were included for each parameter: triglycerides >6 mmoles/l; total cholesterol >6 mmoles/l HDL cholesterol 0.7-0.8 mmole/l; LDL cholesterol >2.5 mmoles/l. The limits of the range were selected based on the studies reported in the literature (H. Thuro, Effective decrease in cholesterol and triglycerides with atorvastatin, Supplement in Der Internist 1996; 37 (8), 1-8).
# [3] = same observational study; patients assigned to three groups by disease pattern (DGFF guidelines); assay type: in vivo
# Method: A somewhat smaller group was treated with α-lipoic acid, but not with captopril (n=280). The treatment time extended over approximately 3 months. α-Lipoic acid was predominantly administered orally or parenterally in a dose of 600 mg per day. Captopril was ingested orally in daily doses of 12.5 to 50 mg.
# In another consideration, the patients were assigned to three groups on the basis of their disease pattern, independent of the form of therapy, according to the “Guidelines of the German Association for Combatting Disorders of Lipid Metabolism and Their Sequelae DGFF (Lipid-Liga) e.V.” (Supplement to the German Ärzteblatte 1996; 4, 1-8):
# 1) isolated LDL-hypercholesterolemia (LDL>4.14, triglycerides≦2.2 mmoles/l);
# 2) combined LDL-hypercholesterolemia (LDL>4.14, triglycerides>2.2 mmoles/l);
# 3) isolated hypertriglyceridemia (LDL≦4.14, triglycerides>2.2 mmoles/l).
# Standard values from the literature were set as limiting values (Wilson et al., Harrison's Principles of Internal Medicine, 12Edition, McGraw-Hill, 1991).
# Sixty-two patients were placed in the first group, 112 patients in the second group, and 83 patients in the third group.
# [4] = total population, start vs end of observation after three months, predominantly 600 mg per day
# [5] = group 2 combined LDL-hypercholesterolemia
# [6] = group 2 combined LDL-hypercholesterolemia, 91 paired values, p<0.0001
structure (smiles),measurement,setting,value
"O=C(O)CCCCC1CCSS1 (stereo not drawn) [α-lipoic acid, 5-(1,2-dithiolan-3-yl) valeric acid]",compatibility of oral and parenteral therapy,[1],very good
same,"HDL cholesterol, mean end value","[2]; patients with initial HDL 0.7-0.8 mmole/l, all patients, prior mean 0.76 (n=33), end n=13, increase not significant",0.97 mmol/L
same,"percent increase of HDL cholesterol, on average","[2]; patients with initial HDL 0.7-0.8 mmole/l, not significant",over 20%
same,"LDL cholesterol, mean end value","[2]; patients with initial LDL >2.5 mmoles/l, all patients, prior mean 4.41 (n=336), end n=208, p<0.001",4.03 mmol/L
same,"percent decrease of LDL cholesterol, on average","[2]; patients with initial LDL >2.5 mmoles/l, in all groups",approximately 10%
same,mean percent decrease of total cholesterol,"[2]; patients with initial total cholesterol >6 mmoles/l, in all groups",approximately 10%
same,"total cholesterol, mean end value","[2]; patients with initial total cholesterol >6 mmoles/l, prior mean 7.32 (n=853), 570 paired values, p<0.0001",6.57 mmol/L
same,"triglycerides, mean end value","[2]; patients with initial triglycerides >6 mmoles/l, all patients, prior mean 8.96 (n=33), end n=26, p<0.05, approx. 3 months",7.16 mmol/L
same,mean percentual decrease of triglycerides,"[2]; patients with initial triglycerides >6 mmoles/l, in all groups (total, combined with captopril, single therapy)",greater than 20%
same,"observed changes of all lipid parameters, single therapy compared with combined therapy with captopril",[2]; single therapy of α-lipoic acid vs combined therapy with captopril,more strongly pronounced
same,change of HDL cholesterol,[2]; [4],slight increase
same,change of LDL cholesterol,[2]; [4],statistically striking decrease
same,change of total cholesterol,[2]; [4],statistically striking decrease
same,change of triglycerides,"[2]; total population, start vs end of observation after three months, predominantly 600 mg per day oral or parenteral",statistically striking decrease
same,"HDL cholesterol, percent increase","[3]; group 1, 34 paired values, not significant",approximately 10%
same,"total cholesterol, percent decrease",[3]; group 1 isolated LDL-hypercholesterolemia,8%
same,"total cholesterol, end value","[3]; group 1 isolated LDL-hypercholesterolemia, initial 7.01 (n=62), end n=40",6.49 mmol/L
same,"LDL cholesterol, mean percent decrease","[3]; group 1 isolated LDL-hypercholesterolemia, p<0.0001",16%
same,"HDL cholesterol, end value","[3]; group 1 isolated LDL-hypercholesterolemia, prior 1.29 (n=61), end n=34",1.34 mmol/L
same,"triglycerides, average end value","[3]; group 1 isolated LDL-hypercholesterolemia, prior 1.69, n=38, increase not significant",1.70 mmol/L
same,"LDL cholesterol, end value","[3]; group 1 isolated LDL-hypercholesterolemia, prior 5.02, n=33",4.33 mmol/L
same,"HDL cholesterol, percent increase",[3]; [5],4.5%
same,"total cholesterol, percent decrease",[3]; [5],~10%
same,"triglycerides, absolute difference (decrease)",[3]; [6],0.83 mmol/L
same,"triglycerides, percent decrease",[3]; [6],20%
same,"LDL cholesterol, mean percent decrease","[3]; group 2 combined LDL-hypercholesterolemia, p<0.0001",14%
same,"HDL cholesterol, end value","[3]; group 2 combined LDL-hypercholesterolemia, prior 1.15 (n=108), end n=77",1.15 mmol/L
same,"LDL cholesterol, end value","[3]; group 2 combined LDL-hypercholesterolemia, prior 5.42, n=74",4.75 mmol/L
same,"total cholesterol, end value","[3]; group 2 combined LDL-hypercholesterolemia, prior 7.71 (n=112), end n=94",6.86 mmol/L
same,"triglycerides, end value","[3]; group 2 combined LDL-hypercholesterolemia, prior value 3.75, 91 paired values",2.74 mmol/L
same,"HDL cholesterol, percent increase","[3]; group 3, 59 paired values, p<0.01",approximately 15%
same,"total cholesterol, percent decrease",[3]; group 3 isolated hypertriglyceridemia,about 5%
same,"LDL cholesterol, end value","[3]; group 3 isolated hypertriglyceridemia, initial 3.29, n=59, change not significant",3.23 mmol/L
same,"total cholesterol, end value","[3]; group 3 isolated hypertriglyceridemia, initial 6.31 (n=83), end n=67",5.88 mmol/L
same,"triglycerides, percent reduction","[3]; group 3 isolated hypertriglyceridemia, n=67, p<0.0001",about 16%
same,"HDL cholesterol, end value","[3]; group 3 isolated hypertriglyceridemia, prior 1.19 (n=83), end n=59",1.31 mmol/L
same,"triglycerides, end value","[3]; group 3 isolated hypertriglyceridemia, prior 3.33 (n=83), n=67, p<0.0001",2.69 mmol/L
same,decrease in ratio of LDL to HDL cholesterol,[3]; isolated LDL hypercholesterolemia (group 1),16.97%
same,"ratio of LDL to HDL cholesterol, end value","[3]; isolated LDL hypercholesterolemia (group 1), prior value 3.89",3.23
same,decrease in ratio of LDL to HDL cholesterol,[3]; mixed hyperlipidemia (group 2),12.31%
same,"ratio of LDL to HDL cholesterol, end value","[3]; mixed hyperlipidemia (group 2), prior value 4.71",4.13
same,improvement in ratio of LDL to HDL cholesterol,"[3]; patients without LDL cholesterinolemia (group 3), initial value in normal range",10.51%
